Experimental data: ChEMBL document CHEMBL1154360, “Cytotoxic and PTP1B inhibitory activities from Erythrina abyssinica” (Bioorg Med Chem Lett, 2009)

Test system: MDA-MB-231
Assay: Cytotoxicity against human MDA-MB-231 cells by WST-1 assay
Type: functional, cell-based

| Structure (SMILES) | IC50 [µM] |
| --- | --- |
| COc1ccc2c(c1CC=C(C)C)O[C@H]1c3ccc(O)cc3OC[C@@]21OC [ERYTHRIBYSSIN A] | 28 |
| O=Cc1c(O)ccc2c1O[C@H]1c3ccc(O)cc3OC[C@@H]21 [ERYTHRIBYSSIN B] | > 30 |
| CC(C)=CCc1c(O)ccc2c1OC[C@H]1c3ccc4c(c3O[C@@H]21)C=CC(C)(C)O4 [ERYBREADIN B] | 7.7 |
| COc1ccc2c(c1CC=C(C)C)O[C@H]1c3cc(CC=C(C)C)c(O)cc3OC[C@@]21O [ERYSTAGALLIN A] | > 30 |
| CC(C)=CCc1c(O)ccc2c1O[C@H]1c3ccc(O)cc3OC[C@@H]21 [PHASEOLLIDIN] | > 30 |
| CC(C)=CCc1c(O)ccc2c1OC[C@H]1c3ccc(O)cc3O[C@@H]21 | > 30 |
| CC(C)=CCc1cc2c(cc1O)OC[C@H]1c3ccc(O)c(CC=C(C)C)c3O[C@@H]21 [ERYBRAEDIN C] | > 30 |
| CCCCCCCCCCCCCCCC(=O)C1=C(O)[C@@H](CO)OC1=O | > 30 |
| CC(C)=CCc1cc2c(cc1O)O[C@H]1c3ccc(O)cc3OC[C@@H]21 [SOPHORAPTEROCARPAN A] | > 30 |
| CC(C)=CCc1cc2c(cc1O)OC[C@@]1(O)c3ccc4c(c3O[C@@H]21)C=CC(C)(C)O4 [ERYSUBIN E] | > 30 |
| CC(C)=CCc1cc2c(cc1O)OC[C@H]1c3ccc4c(c3O[C@@H]21)C=CC(C)(C)O4 [FOLITENOL] | 16.7 |
| CC(C)=CCc1cc2c(cc1O)O[C@H]1c3ccc(O)c(CC=C(C)C)c3OC[C@@H]21 [ERYBREADIN C] | 22.7 |
| CC1(C)C=Cc2cc3c(cc2O1)OC[C@H]1c2ccc(O)cc2O[C@@H]31 [NEORAUTENOL] | > 30 |
| C[C@H]1[C@H](C)CC[C@]2(C(=O)O)CC[C@]3(C)C(=CC[C@@H]4[C@@]5(C)CC[C@H](O)C(C)(C)[C@@H]5CC[C@]43C)[C@H]12 [URSOLIC ACID] | > 30 |
| COc1cc2c(cc1O)O[C@H]1c3cc(CC=C(C)C)c(OC)cc3OC[C@@H]21 [ERYTHRIBYSSIN C] | > 30 |
| COc1cc2c(cc1O)O[C@H]1c3cc(CC=C(C)C)c(O)cc3OC[C@@H]21 [ERYVARIN K] | > 30 |

Target: T1, Tyrosine-protein phosphatase non-receptor type 1 (Homo sapiens, UniProt P18031)
T1 sequence (P18031 whole entry): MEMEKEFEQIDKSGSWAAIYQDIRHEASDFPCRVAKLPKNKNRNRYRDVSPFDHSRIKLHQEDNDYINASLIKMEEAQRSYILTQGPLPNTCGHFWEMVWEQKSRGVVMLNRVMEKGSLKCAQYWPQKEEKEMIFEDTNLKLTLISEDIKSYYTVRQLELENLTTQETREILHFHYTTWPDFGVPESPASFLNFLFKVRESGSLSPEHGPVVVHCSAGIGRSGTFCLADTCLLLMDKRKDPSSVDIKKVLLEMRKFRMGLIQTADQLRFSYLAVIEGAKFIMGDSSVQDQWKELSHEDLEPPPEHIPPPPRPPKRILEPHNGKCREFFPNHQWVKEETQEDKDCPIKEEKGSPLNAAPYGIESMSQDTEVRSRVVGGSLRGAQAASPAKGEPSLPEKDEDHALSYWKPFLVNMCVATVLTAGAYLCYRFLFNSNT
Assay: Inhibition of human recombinant PTP1B assessed as p-nitrophenol production

| Structure (SMILES) | IC50 [µM] |
| --- | --- |
| COc1ccc2c(c1CC=C(C)C)O[C@H]1c3ccc(O)cc3OC[C@@]21OC [ERYTHRIBYSSIN A] | 19.3 |
| O=Cc1c(O)ccc2c1O[C@H]1c3ccc(O)cc3OC[C@@H]21 [ERYTHRIBYSSIN B] | > 30 |
| CC(C)=CCc1c(O)ccc2c1OC[C@H]1c3ccc4c(c3O[C@@H]21)C=CC(C)(C)O4 [ERYBREADIN B] | 4.2 |
| COc1ccc2c(c1CC=C(C)C)O[C@H]1c3cc(CC=C(C)C)c(O)cc3OC[C@@]21O [ERYSTAGALLIN A] | 20.8 |
| CC(C)=CCc1c(O)ccc2c1O[C@H]1c3ccc(O)cc3OC[C@@H]21 [PHASEOLLIDIN] | > 30 |
| CC(C)=CCc1c(O)ccc2c1OC[C@H]1c3ccc(O)cc3O[C@@H]21 | 19.5 |
| CC(C)=CCc1cc2c(cc1O)OC[C@H]1c3ccc(O)c(CC=C(C)C)c3O[C@@H]21 [ERYBRAEDIN C] | > 30 |
| CC(C)=CCc1c(O)ccc2c1OC[C@H]1c3ccc4c(c3O[C@@H]21)OC(C)(C)C=C4 [ERYBREADIN D] | 6.4 |
| CC(C)=CCc1cc2c(cc1O)O[C@H]1c3ccc(O)cc3OC[C@@H]21 [SOPHORAPTEROCARPAN A] | > 30 |
| CC(C)=CCc1cc2c(cc1O)OC[C@@]1(O)c3ccc4c(c3O[C@@H]21)C=CC(C)(C)O4 [ERYSUBIN E] | 8.8 |
| CC(C)=CCc1cc2c(cc1O)OC[C@H]1c3ccc4c(c3O[C@@H]21)C=CC(C)(C)O4 [FOLITENOL] | 7.8 |
| CC(C)=CCc1cc2c(cc1O)O[C@H]1c3ccc(O)c(CC=C(C)C)c3OC[C@@H]21 [ERYBREADIN C] | 7.3 |
| CC1(C)C=Cc2cc3c(cc2O1)OC[C@H]1c2ccc(O)cc2O[C@@H]31 [NEORAUTENOL] | 7.6 |
| COc1cc2c(cc1O)O[C@H]1c3cc(CC=C(C)C)c(OC)cc3OC[C@@H]21 [ERYTHRIBYSSIN C] | > 30 |
| COc1cc2c(cc1O)O[C@H]1c3cc(CC=C(C)C)c(O)cc3OC[C@@H]21 [ERYVARIN K] | > 30 |

Test system: MCF7
Assay: Cytotoxicity against human MCF7 cells by WST-1 assay
Type: functional, cell-based

| Structure (SMILES) | IC50 [µM] |
| --- | --- |
| COc1ccc2c(c1CC=C(C)C)O[C@H]1c3ccc(O)cc3OC[C@@]21OC [ERYTHRIBYSSIN A] | 19.4 |
| O=Cc1c(O)ccc2c1O[C@H]1c3ccc(O)cc3OC[C@@H]21 [ERYTHRIBYSSIN B] | > 30 |
| CC/C(=C(\c1ccccc1)c1ccc(OCCN(C)C)cc1)c1ccccc1 [TAMOXIFEN] | 11.4 |
| CC(C)=CCc1c(O)ccc2c1OC[C@H]1c3ccc4c(c3O[C@@H]21)C=CC(C)(C)O4 [ERYBREADIN B] | 11.8 |
| COc1ccc2c(c1CC=C(C)C)O[C@H]1c3cc(CC=C(C)C)c(O)cc3OC[C@@]21O [ERYSTAGALLIN A] | > 30 |
| CC(C)=CCc1c(O)ccc2c1O[C@H]1c3ccc(O)cc3OC[C@@H]21 [PHASEOLLIDIN] | > 30 |
| CC(C)=CCc1c(O)ccc2c1OC[C@H]1c3ccc(O)cc3O[C@@H]21 | > 30 |
| CC(C)=CCc1cc2c(cc1O)OC[C@H]1c3ccc(O)c(CC=C(C)C)c3O[C@@H]21 [ERYBRAEDIN C] | > 30 |
| CCCCCCCCCCCCCCCC(=O)C1=C(O)[C@@H](CO)OC1=O | > 30 |
| CC(C)=CCc1cc2c(cc1O)O[C@H]1c3ccc(O)cc3OC[C@@H]21 [SOPHORAPTEROCARPAN A] | > 30 |
| CC(C)=CCc1cc2c(cc1O)OC[C@@]1(O)c3ccc4c(c3O[C@@H]21)C=CC(C)(C)O4 [ERYSUBIN E] | > 30 |
| CC(C)=CCc1cc2c(cc1O)O[C@H]1c3ccc(O)c(CC=C(C)C)c3OC[C@@H]21 [ERYBREADIN C] | 14.8 |
| CC1(C)C=Cc2cc3c(cc2O1)OC[C@H]1c2ccc(O)cc2O[C@@H]31 [NEORAUTENOL] | > 30 |
| C[C@H]1[C@H](C)CC[C@]2(C(=O)O)CC[C@]3(C)C(=CC[C@@H]4[C@@]5(C)CC[C@H](O)C(C)(C)[C@@H]5CC[C@]43C)[C@H]12 [URSOLIC ACID] | > 30 |
| COc1cc2c(cc1O)O[C@H]1c3cc(CC=C(C)C)c(OC)cc3OC[C@@H]21 [ERYTHRIBYSSIN C] | > 30 |
| COc1cc2c(cc1O)O[C@H]1c3cc(CC=C(C)C)c(O)cc3OC[C@@H]21 [ERYVARIN K] | > 30 |

Test system: MCF7
Assay: Cytotoxicity against human adriamycin- resistant MCF7 cells by WST-1 assay
Type: functional, cell-based

| Structure (SMILES) | IC50 [µM] |
| --- | --- |
| COc1ccc2c(c1CC=C(C)C)O[C@H]1c3ccc(O)cc3OC[C@@]21OC [ERYTHRIBYSSIN A] | 16.1 |
| O=Cc1c(O)ccc2c1O[C@H]1c3ccc(O)cc3OC[C@@H]21 [ERYTHRIBYSSIN B] | > 30 |
| CC(C)=CCc1c(O)ccc2c1OC[C@H]1c3ccc4c(c3O[C@@H]21)C=CC(C)(C)O4 [ERYBREADIN B] | 5.6 |
| COc1ccc2c(c1CC=C(C)C)O[C@H]1c3cc(CC=C(C)C)c(O)cc3OC[C@@]21O [ERYSTAGALLIN A] | > 30 |
| CC(C)=CCc1c(O)ccc2c1O[C@H]1c3ccc(O)cc3OC[C@@H]21 [PHASEOLLIDIN] | > 30 |
| CC(C)=CCc1c(O)ccc2c1OC[C@H]1c3ccc(O)cc3O[C@@H]21 | > 30 |
| CC(C)=CCc1cc2c(cc1O)OC[C@H]1c3ccc(O)c(CC=C(C)C)c3O[C@@H]21 [ERYBRAEDIN C] | > 30 |
| CC(C)=CCc1c(O)ccc2c1OC[C@H]1c3ccc4c(c3O[C@@H]21)OC(C)(C)C=C4 [ERYBREADIN D] | 12.7 |
| CCCCCCCCCCCCCCCC(=O)C1=C(O)[C@@H](CO)OC1=O | > 30 |
| CC(C)=CCc1cc2c(cc1O)O[C@H]1c3ccc(O)cc3OC[C@@H]21 [SOPHORAPTEROCARPAN A] | > 30 |
| CC(C)=CCc1cc2c(cc1O)OC[C@@]1(O)c3ccc4c(c3O[C@@H]21)C=CC(C)(C)O4 [ERYSUBIN E] | > 30 |
| CC(C)=CCc1cc2c(cc1O)OC[C@H]1c3ccc4c(c3O[C@@H]21)C=CC(C)(C)O4 [FOLITENOL] | 10.8 |
| CC(C)=CCc1cc2c(cc1O)O[C@H]1c3ccc(O)c(CC=C(C)C)c3OC[C@@H]21 [ERYBREADIN C] | 20.1 |
| CC1(C)C=Cc2cc3c(cc2O1)OC[C@H]1c2ccc(O)cc2O[C@@H]31 [NEORAUTENOL] | > 30 |
| C[C@H]1[C@H](C)CC[C@]2(C(=O)O)CC[C@]3(C)C(=CC[C@@H]4[C@@]5(C)CC[C@H](O)C(C)(C)[C@@H]5CC[C@]43C)[C@H]12 [URSOLIC ACID] | > 30 |
| COc1cc2c(cc1O)O[C@H]1c3cc(CC=C(C)C)c(OC)cc3OC[C@@H]21 [ERYTHRIBYSSIN C] | > 30 |
| COc1cc2c(cc1O)O[C@H]1c3cc(CC=C(C)C)c(O)cc3OC[C@@H]21 [ERYVARIN K] | > 30 |

Test system: MCF7
Assay: Cytotoxicity against human tamoxifen-resistant MCF7 cells by WST-1 assay
Type: functional, cell-based

| Structure (SMILES) | IC50 [µM] |
| --- | --- |
| COc1ccc2c(c1CC=C(C)C)O[C@H]1c3ccc(O)cc3OC[C@@]21OC [ERYTHRIBYSSIN A] | 12 |
| O=Cc1c(O)ccc2c1O[C@H]1c3ccc(O)cc3OC[C@@H]21 [ERYTHRIBYSSIN B] | > 30 |
| CC(C)=CCc1c(O)ccc2c1OC[C@H]1c3ccc4c(c3O[C@@H]21)C=CC(C)(C)O4 [ERYBREADIN B] | 6.2 |
| COc1ccc2c(c1CC=C(C)C)O[C@H]1c3cc(CC=C(C)C)c(O)cc3OC[C@@]21O [ERYSTAGALLIN A] | > 30 |
| CC(C)=CCc1c(O)ccc2c1O[C@H]1c3ccc(O)cc3OC[C@@H]21 [PHASEOLLIDIN] | > 30 |
| CC(C)=CCc1c(O)ccc2c1OC[C@H]1c3ccc(O)cc3O[C@@H]21 | > 30 |
| CC(C)=CCc1cc2c(cc1O)OC[C@H]1c3ccc(O)c(CC=C(C)C)c3O[C@@H]21 [ERYBRAEDIN C] | > 30 |
| CC(C)=CCc1c(O)ccc2c1OC[C@H]1c3ccc4c(c3O[C@@H]21)OC(C)(C)C=C4 [ERYBREADIN D] | 7.8 |
| CCCCCCCCCCCCCCCC(=O)C1=C(O)[C@@H](CO)OC1=O | > 30 |
| CC(C)=CCc1cc2c(cc1O)O[C@H]1c3ccc(O)cc3OC[C@@H]21 [SOPHORAPTEROCARPAN A] | > 30 |
| CC(C)=CCc1cc2c(cc1O)OC[C@@]1(O)c3ccc4c(c3O[C@@H]21)C=CC(C)(C)O4 [ERYSUBIN E] | > 30 |
| CC(C)=CCc1cc2c(cc1O)OC[C@H]1c3ccc4c(c3O[C@@H]21)C=CC(C)(C)O4 [FOLITENOL] | 18.8 |
| CC(C)=CCc1cc2c(cc1O)O[C@H]1c3ccc(O)c(CC=C(C)C)c3OC[C@@H]21 [ERYBREADIN C] | 9.1 |
| CC1(C)C=Cc2cc3c(cc2O1)OC[C@H]1c2ccc(O)cc2O[C@@H]31 [NEORAUTENOL] | > 30 |
| C[C@H]1[C@H](C)CC[C@]2(C(=O)O)CC[C@]3(C)C(=CC[C@@H]4[C@@]5(C)CC[C@H](O)C(C)(C)[C@@H]5CC[C@]43C)[C@H]12 [URSOLIC ACID] | > 30 |
| COc1cc2c(cc1O)O[C@H]1c3cc(CC=C(C)C)c(OC)cc3OC[C@@H]21 [ERYTHRIBYSSIN C] | > 30 |
| COc1cc2c(cc1O)O[C@H]1c3cc(CC=C(C)C)c(O)cc3OC[C@@H]21 [ERYVARIN K] | > 30 |
